This note sets out measurements from ChEMBL document CHEMBL2074034, “Characterization of cloned mouse Na+/taurocholate cotransporting polypeptide by transient expression in COS-7 cells” (Biosci Biotechnol Biochem, 2002).

What all share (type): functional, cell-based
Common to all, as to details: monkey, cos-7, 72 µM

Series [1] deals with T1, Hepatic sodium/bile acid cotransporter (Mus musculus, UniProt O08705).
T1 sequence (O08705 whole entry): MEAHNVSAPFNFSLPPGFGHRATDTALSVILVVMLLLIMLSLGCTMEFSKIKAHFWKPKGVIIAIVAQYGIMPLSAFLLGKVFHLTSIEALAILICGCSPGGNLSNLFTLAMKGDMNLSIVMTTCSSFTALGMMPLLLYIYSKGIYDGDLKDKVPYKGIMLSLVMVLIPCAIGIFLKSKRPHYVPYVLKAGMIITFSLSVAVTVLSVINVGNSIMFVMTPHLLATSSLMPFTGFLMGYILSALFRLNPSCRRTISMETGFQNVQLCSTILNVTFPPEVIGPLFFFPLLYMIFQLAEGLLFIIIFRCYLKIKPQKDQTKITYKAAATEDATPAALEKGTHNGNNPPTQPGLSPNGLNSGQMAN
In words: TP_TRANSPORTER: inhibition of Taurocholate uptake (Taurocholate: 0.72 uM, CDCA: 72 uM) in Ntcp-expressing COS-7 cells.

Series [2] concerns the target T1, Hepatic sodium/bile acid cotransporter. In words: TP_TRANSPORTER: inhibition of Taurocholate uptake (Taurocholate: 0.72 uM, Deoxycholate: 72 uM) in Ntcp-expressing COS-7 cells.
Series [3] has the same target. Kind of series: TP_TRANSPORTER: inhibition of Taurocholate uptake (Taurocholate: 0.72 uM, Lithocholate: 72 uM) in Ntcp-expressing COS-7 cells.
Series [4] has the same target. In words: TP_TRANSPORTER: inhibition of Taurocholate uptake (Taurocholate: 0.72 uM, GC: 72 uM) in Ntcp-expressing COS-7 cells.

On to `C[C@H](CCC(=O)O)[C@H]1CC[C@H]2[C@@H]3[C@H](O)C[C@@H]4C[C@H](O)CC[C@]4(C)[C@H]3CC[C@]12C` [CHENODIOL], for which, in series [1], the Activity entry was “inhibitor [(at a rough estimate) 20 % of control]”.
For `C[C@H](CCC(=O)O)[C@H]1CC[C@H]2[C@@H]3CC[C@@H]4C[C@H](O)CC[C@]4(C)[C@H]3C[C@H](O)[C@]12C` [DEOXYCHOLIC ACID], in series [2], the Activity entry was “inhibitor [(at a rough estimate) 20 % of control]”.
For the molecule `C[C@H](CCC(=O)O)[C@H]1CC[C@H]2[C@@H]3CC[C@@H]4C[C@H](O)CC[C@]4(C)[C@H]3CC[C@]12C` [LITHOCHOLIC ACID], the Activity result in series [3] is “inhibitor [(at a rough estimate) 5 % of control]”.
With `C[C@H](CCC(=O)NCC(=O)O)[C@H]1CC[C@H]2[C@@H]3[C@H](O)C[C@@H]4C[C@H](O)CC[C@]4(C)[C@H]3C[C@H](O)[C@]12C` [GLYCOCHOLIC ACID], in series [4], the Activity result was “inhibitor [(at a rough estimate) 40 % of control]”.
